Results from patent US20110112114A1, “INHIBITORS OF SERINE PROTEASES, PARTICULARLY HEPATITIS C VIRUS NS3 PROTEASE” (priority 1999, published 2011).

Molecular target: HCV NS3 serine protease (Hepatitis C virus genotype 1a, UniProt P27958)
Assay: biochemical
Conditions: Ki from rate vs. [inhibitor] plots, Morrison tight binding competitive inhibition fit; with or without NS4A; 30 C, pH 7.8
Description: Peptides EDVVabuCSMSY (Abu designates—aminobutyric acid), […], […] and EDVV AbuC-p-nitroanilide was purchased from AnaSpec Inc. (San Jose, Calif.).
Cleavage reactions were quenched by the addition of an equal volume of a mixture of 10% TFA: acetonitrile (1:1) and activity was assessed on a reversed phase HPLC column (Rainin C18 Microsorb-MV, […], 4.6×250 mm; 0-50% acetonitrile, 0.1% TFA@3.33% min) using a Hewlett Packard 1050 instrument with auto-injection and diode array detection at 210 nm and 280 nm (where appropriate). Peptide elution fragments were collected and identified by mass spectrometry and N-terminal sequence analysis. Fragment identity and concentration was further verified by authentic, synthesized products. Initial rates of cleavage were determined at <20% substrate conversion and catalytic parameters were determined assuming Michaelis-Menten kinetics using the MultiFit program (Day Computing, Cambridge, Mass.).
Spectrophotometric assays were run in a 96-well microtiter plate at 30 C, using a SpectraMax 250 reader (Molecular Devices, Sunnyvale, Calif.) with kinetic capability. Cleavage of EDVV AbuC-p-nitroanilide (5A-pNA) substrate was performed with or without NS4A in the same buffer used for HPLC assays at 30 C, and pNA release was monitored at 405 nm. The extinction coefficient of p-nitroaniline is independent of pH at values of 5.5. and above [Tuppy, H., et al., Hoppe-Seyler's Z. Physiol. Chem., 329, pp. 278-288 (1962)]; Raybuck and Luong, unpublished observations).
Kinetic constants for the rapid equilibrium ordered bisubstrate reaction were determined from rate vs. [4A], [EDVV Abuc-pNa]data by non-linear least squares fitting to equation 1 [Morrison, J. F. Biochim. Biophys. Acta., 185, pp. 269-286 (1969)] as described in the text. Kii and Kis valkues for peptidyl inhibitors were determined from rate vs. [inhibitor], [substrate] data and fitting to the equation for mixed inhibition:
rate=Vmax[S]/{Km(1+[I]/Kis0+[S](1+[I]/Kii)}
The commercial program KinetAsyst (State College, Pa.) was used for both procedures. Ki values were calculated from rate vs. [inhibitor] plots by a nonlinear least squares fit of the data to the equation of Morrison for tight binding competitive inhibition [Morrison, J. F. Biochim. Biophys. Acta., 185, pp. 269-286 (1969)]. The KineTic program (BioKin Ltd) was used for this procedure.
Ki values are express in μM. Category “A” indicates <1 μM inhibition; category “B” indicates 1-100 μM inhibition; category “C” indicates >100 μM.

Sequence of HCV NS3 serine protease (P27958 1027-1208): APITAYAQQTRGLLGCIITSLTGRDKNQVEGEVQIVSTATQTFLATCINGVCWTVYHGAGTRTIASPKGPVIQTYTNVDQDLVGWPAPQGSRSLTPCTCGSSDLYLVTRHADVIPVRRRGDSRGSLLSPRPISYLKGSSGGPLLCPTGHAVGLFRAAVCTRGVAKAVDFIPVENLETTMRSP

Ki, 1 to 100 µM:
CCC(C=O)NC(=O)c1cc(OCc2ccccc2)ccc1NC(=O)C(NC(=O)C(NC(=O)c1cnccn1)C(C)C)C(C)C (stereo not shown) [Compound 101], CCC(C=O)NC(=O)c1cc(OCc2ccccc2)ccc1NC(=O)C(NC(=O)c1c(O)ccc2ccccc12)C(C)C (stereo not shown) [Compound 104], CCC(C=O)NC(=O)c1cc(OCc2ccc(Cl)c(Cl)c2)ccc1NC(=O)C(NC(=O)C(NC(=O)c1cnccn1)C(C)C)C(C)C (stereo not shown) [Compound 107], CCC(C=O)NC(=O)c1cc(OCc2ccccc2)ccc1N(C)C(=O)C(NC(=O)C(NC(=O)c1cnccn1)C(C)C)C(C)C (stereo not shown) [Compound 103]
